In patent US4081531A, “Antibiotic mimosamycin” (priority 1975, dated 1978):
≈ marks a conversion by molar mass, not a printed value.

Test system: Mycobacterium tuberculosis SMR
Assay: Antimicrobial activity (MIC) against tubercle bacilli
Type: cell-based
Details: 672 h

COC1=C(C)C(=O)c2cc(=O)n(C)cc2C1=O [mimosamycin]
MIC: 1.56 µg/mL (≈ 6.69 µM)
